Assay results as given in PubChem BioAssay (NCI).
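Dose response: 5 concentrations. Exposure: 48 h. Format: 96-well plates. Endpoint: linear interpolation; highest concentration if not reached. TGI marks complete inhibition of growth.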

How the values were obtained:
Assay in all cases: growth of human tumour cells (NCI), 48 h
[1] = tested on: MALME-3M melanoma
[2] = tested on: MCF7 breast
[3] = tested on: SN12C renal
[4] = tested on: K-562 leukemia
[5] = tested on: HCT-116 colon
[6] = tested on: RXF 393 renal
[7] = tested on: SK-MEL-2 melanoma
[8] = tested on: BT-549 breast
[9] = tested on: HL-60(TB) leukemia
[10] = tested on: HOP-62 NSCLC
[11] = tested on: CCRF-CEM leukemia
[12] = tested on: NCI-H226 lung
[13] = tested on: HCC-2998 colon
[14] = tested on: UACC-62 melanoma
[15] = tested on: SR leukemia
[16] = tested on: SF-268 CNS
[17] = tested on: LOX IMVI melanoma
[18] = tested on: IGROV1 ovarian
[19] = tested on: MDA-N
[20] = tested on: SF-539 CNS
[21] = tested on: OVCAR-3 ovarian
[22] = tested on: PC-3 prostate
[23] = tested on: KM12 colon
[24] = tested on: OVCAR-4 ovarian
[25] = tested on: OVCAR-5 ovarian
[26] = tested on: EKVX NSCLC
[27] = tested on: 786-0 renal
[28] = tested on: RPMI-8226 leukemia
[29] = tested on: SK-MEL-5 melanoma
[30] = tested on: UACC-257 melanoma
[31] = tested on: NCI/ADR-RES ovarian
[32] = tested on: COLO 205 colon
[33] = tested on: NCI-H522 lung
[34] = tested on: SNB-19 CNS
[35] = tested on: MDA-MB-231 breast
[36] = tested on: CAKI-1 renal
[37] = tested on: M14 melanoma
[38] = tested on: T-47D breast
[39] = tested on: HCT-15 colon
[40] = tested on: OVCAR-8 ovarian
[41] = tested on: NCI-H460 lung
[42] = tested on: UO-31 renal
[43] = tested on: SW-620 colon
[44] = tested on: SNB-75 CNS
[45] = tested on: SF-295 CNS
[46] = tested on: SK-MEL-28 melanoma
[47] = tested on: HT29 colon
[48] = tested on: NCI-H23 lung
[49] = tested on: MOLT-4 leukemia
[50] = tested on: DU-145 prostate
[51] = tested on: ACHN renal
[52] = tested on: MDA-MB-435
[53] = tested on: TK-10 renal
[54] = tested on: U251 CNS
[55] = tested on: HOP-92 NSCLC
[56] = tested on: SK-OV-3 ovarian
[57] = tested on: A498 renal
[58] = tested on: A549 NSCLC

Measured: TGI

COc1cc(C(=O)n2c3ccc(Br)cc3c3nc4ccccc4nc32)cc(OC)c1OC
66.4 µM: [6]
not listed: [56] | [57] | [58]
> 100 µM: all other assays above

CN(C)N=Nc1ccc(NC=O)cc1
not listed: [1] | [12] | [16] | [33] | [48]
> 100 µM: all other assays above

CNc1ccc(C(=O)CC(O)CCC(C)C2OC(=O)CC(O)CC(=O)CC(O)CC(O)CC(O)CC(O)CC3(O)CC(O)C(C(=O)NCCN(C)C)C(CC(OC4OC(C)C(O)C(NC(=O)CN5CCN(C)CC5)C4O)/C=C/C=C/C=C/C=C\C=C/C=C/C=C/C2C)O3)cc1 (centres undefined)
8.91 µM: [1]
7.8 µM: [57]
45.7 µM: [46]
71 µM: [30]
9.92 µM: [47]
not listed: [2] | [5] | [11] | [13] | [15] | [17] | [21] | [23] | [26] | [28] | [29] | [33] | [34] | [51]
> 100 µM: all other assays above

Cc1cc(C)nc(NC(=O)c2ccc(Br)s2)c1
16.6 µM: [28]
62.4 µM: [25]
81.6 µM: [35]
17.6 µM: [29]
23.5 µM: [32]
79.5 µM: [37]
15.6 µM: [11]
not listed: [9]
> 100 µM: all other assays above
